Where no end group is shown, it is not given here.
How the values were obtained:
[1] = tested on: rats; assay: Passive avoidance, scopolamine-induced amnesia; assay type: in vivo, rat
Description: Passive avoidance trials were then used to test the effect of modulation of AT4 receptor/IRAP activity on aversive conditioning behaviour in amnesic animals. The passive avoidance task involves aversive conditioning behaviour to measure facilitation of memory retention and retrieval. The testing was carried out in an apparatus that consisted of a light and a dark compartment separated by a guillotine door. The floor of the dark compartment contained an electrified grid.
Rats were surgically implanted with chronic cannulae in the lateral ventricle. On conditioning day, the animals were habituated in the dark compartment for 5 min with the guillotine door closed. The animals were then placed in their home cages for 5 min before being placed in the light compartment with the guillotine door opened. The latency to enter the dark compartment with all four feet was documented. When the rats entered the dark compartment within 20 s of being placed in the light compartment, they were randomly divided into four treatment groups. The treatment groups were: • (1) saline followed by saline; • (2) saline followed by 1.0 nmole […] (SEQ ID NO:2); • (3) 70 nmole scopolamine followed by saline; and • (4) 70 nmole scopolamine followed by 1.0 nmole […] (SEQ ID NO:2).
All of these were administered into the cerebral ventricles 30 min and 5 min before the acquisition trial. […]

[2] = tested on: SK-N-MC cells; assay: [^3H]-thymidine uptake in SK-N-MC cells; assay type: cell-based; details: Ang IV 10^−10-10^−7 M; LVVYPWTQRF 10^−10-10^−6 M
Description: NG108-15 and SK-N-MC cells were cultured in DMEM supplemented with 10% heat-inactivated FCS, 2% HAT supplement, and 100 U/ml penicillin/streptomycin. Cells were routinely used between passages 20 and 30.
Cells were plated at a density of 3×10^4 cells/well in 24 well Falcon plates that had been coated with 0.1 mg/ml poly-L-lysine hydrobromide. The cells were allowed to adhere overnight, and then serum deprived for 48 h before being treated with […] (SEQ ID NO:2) and/or Ang IV (10^−10 to 10^−6 M) for 24 h in medium with or without serum. Five hours before the end of the experiment 1 μCi of ^3H-thymidine was added to each well. At the completion of the incubation, cells were washed twice with 1 ml of PBS at 4° C., followed by 5% trichloroacetic acid at 4° C. for 30 min, which was aspirated before solubilizing the cells in 1 ml 0.25 M NaOH and 0.1% SDS for 30 min at 37° C. Samples were then collected into 5 ml of Ready Value scintillation fluid and ^3H measured in a liquid scintillation counter.

[3] = tested on: rats; assay: Morris water maze, scopolamine-induced amnesia; assay type: in vivo, rat; details: 1 nmole icv after 70 nmole scopolamine
Source text: The maze consisted of a circular tank, 1.6 m in diameter by 0.6 m in height, containing water to a depth of 30 cm. The room contained visual cues placed 40 cm from the edge of the tank. The rats were subjected to two days of familiarisation to the task, during which the escape pedestal is visible to the animals. During the acquisition phase, for the following 5 days, the water in the tank was rendered opaque, and the escape platform was submerged under the surface of the water. The animals had to rely on the visual cues around the room to find the submerged escape pedestal. The latency of the animal in finding the pedestal during the acquisition phase was taken as a measure of the spatial memory performance of the animal.
Rats were surgically implanted with cannulae in their lateral ventricles and allowed two to three days of recovery. During the familiarisation trials on days 1 and 2, the animals were placed in the water facing the wall of the tank from different starting positions equidistant from the escape pedestal. When the animals located and mounted the pedestal, they were allowed 30 seconds on the pedestal before the commencement of the next trial. Four consecutive trials were carried out on each animal on each day, and the mean latency period before the animal reached the pedestal was plotted. […]

[4] = tested on: AT4 receptor; details: Moeller et al, 1996; Zhang et al, 1999; cited from earlier work
[5] = molecular target: T1, IRAP (Homo sapiens, UniProt Q9UIQ6); assay: IRAP enzymatic activity, hydrolysis of L-leucine-β-naphthylamide (fluorescence); assay type: biochemical
T1 construct: expressed in transfected cells; host or cells: HEK 293T cells (solubilised membrane protein)
Source text: For example, Hek293 cells stably transfected with a eukaryotic expression vector expressing the AT4 receptor gene may be utilized. An example of this is the vector pcDNA-3 containing the cDNA encoding the full length AT4 receptor. Two assay systems are used, one for each spliced variant of the human AT4 receptor gene. The assay system involves the measurement of the rate of hydrolysis of L-leucyl β-naphthylamide by the AT4 receptor. The rate of hydrolysis by the transfected cells is followed by recording the increase in fluorescence (excitation at 340 nm, emission at 410 nm) using a purpose-designed fluorimeter. Test compounds are added to the assay system, and their effects on the hydrolysis of L-leucyl β-naphthylamide are a direct indicator of their modulation of AT4 receptor activity.
Crude membranes were prepared from HEK 293 cells stably transfected with pcDNA-3 containing the cDNA encoding the full length AT4 receptor/IRAP, using the same method as that described for bovine adrenal membranes. The membranes were solubilised in 50 mM Tris-HCl containing 1% Triton-X100 at 4° C. for 16 h. The IRAP enzymatic activity was determined by the hydrolysis of a synthetic substrate, L-leucine-β-naphthylamide, and monitored by the release of a fluorogenic product on a spectrophotometer set at excitation 340 nm and emission 410 nm. One hundred μM of the substrate was added to 10 μg of solubilised membranes, and the increase in fluorescence monitored for 10 min.
Samples were assayed 2-3 times in triplicate, except controls, which were performed 5 times in triplicate.

[6] = molecular target: T2, IRAP (AT4 receptor) (Homo sapiens, UniProt Q9UIQ6); assay: ^125I-Nle^1 Ang IV binding to membranes of HEK 293 cells transfected with IRAP cDNA; details: IRAP cDNA transfected cells
T2 construct: expressed in transfected cells; host or cells: HEK 293 cells (membranes)
Source text: The amount of radioligand bound to the membranes from HEK 293 cells transfected with IRAP cDNA was expressed as a percentage of radioligand bound to membranes from HEK 293 cells transfected with control plasmids.

T1 sequence (Q9UIQ6 whole entry): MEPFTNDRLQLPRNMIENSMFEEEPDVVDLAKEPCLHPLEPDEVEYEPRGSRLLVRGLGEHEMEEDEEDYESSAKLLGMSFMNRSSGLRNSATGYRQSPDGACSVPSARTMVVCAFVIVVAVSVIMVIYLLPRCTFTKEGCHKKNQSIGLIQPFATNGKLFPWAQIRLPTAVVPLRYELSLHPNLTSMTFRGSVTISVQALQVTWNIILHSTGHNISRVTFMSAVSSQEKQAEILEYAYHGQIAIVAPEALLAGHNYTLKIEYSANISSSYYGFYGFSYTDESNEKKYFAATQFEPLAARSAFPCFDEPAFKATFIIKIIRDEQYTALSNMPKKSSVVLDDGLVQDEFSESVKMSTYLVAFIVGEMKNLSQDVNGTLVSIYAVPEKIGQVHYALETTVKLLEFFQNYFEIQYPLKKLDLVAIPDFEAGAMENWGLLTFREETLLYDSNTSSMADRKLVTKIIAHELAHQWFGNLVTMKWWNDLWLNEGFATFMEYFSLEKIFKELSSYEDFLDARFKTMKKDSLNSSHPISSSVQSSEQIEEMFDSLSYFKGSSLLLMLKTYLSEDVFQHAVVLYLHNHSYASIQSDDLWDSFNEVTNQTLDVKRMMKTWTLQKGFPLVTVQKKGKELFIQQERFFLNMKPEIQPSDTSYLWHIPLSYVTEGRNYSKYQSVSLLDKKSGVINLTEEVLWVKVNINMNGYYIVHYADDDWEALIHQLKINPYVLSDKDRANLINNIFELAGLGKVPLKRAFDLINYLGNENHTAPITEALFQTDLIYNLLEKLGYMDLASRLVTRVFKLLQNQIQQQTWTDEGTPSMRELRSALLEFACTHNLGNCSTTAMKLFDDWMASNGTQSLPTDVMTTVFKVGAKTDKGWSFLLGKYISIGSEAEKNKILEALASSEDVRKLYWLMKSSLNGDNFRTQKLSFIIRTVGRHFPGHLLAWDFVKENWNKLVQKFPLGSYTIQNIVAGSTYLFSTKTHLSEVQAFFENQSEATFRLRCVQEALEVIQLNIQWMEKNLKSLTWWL
T2 sequence (Q9UIQ6 whole entry): as above

Sequence: LVVYPWTQRF
- latency to re-enter the dark compartment ([1]; 1.0 nmole icv after 70 nmole scopolamine): not significantly different from controls
- latency to re-enter the dark compartment ([1]; 1.0 nmole icv alone (after saline)): comparable to the scopolamine-treated group
- increase of [^3H]-thymidine uptake [2]: up to 81 % above control levels
- latency in locating the submerged pedestal [3]: reversed the scopolamine-induced latency
- affinity for AT4 receptor [4]: nanomolar affinity
- Ki [5]: 845 nM
- hydrolysis of L-leucine-β-naphthylamide by membranes containing IRAP ([5]; 10 mM peptide): totally abolished
- type of inhibition of IRAP ([5]; Lineweaver-Burk analysis): competitive inhibitors
- binding of ^125I-Nle^1 angiotensin IV to IRAP sites inhibited by ligand [6]: competitively inhibited
